Results on 19 compounds are retold here after patent publication US4847268A, “8-phenylthio-tetrahydroquinolines and anti-allergic use thereof” (Roussel Uclaf, priority 1986, dated 1989).

Where a name gives a salt, the structure may show the parent alone.

For one assay, the target named is T1, 5-lipoxygenase (Rattus norvegicus, UniProt P12527).
T1 construct: pre-labelled rat peritoneal neutrophils; endogenous in cells; host or cells: rat peritoneal neutrophils
T1 sequence (P12527 1-673): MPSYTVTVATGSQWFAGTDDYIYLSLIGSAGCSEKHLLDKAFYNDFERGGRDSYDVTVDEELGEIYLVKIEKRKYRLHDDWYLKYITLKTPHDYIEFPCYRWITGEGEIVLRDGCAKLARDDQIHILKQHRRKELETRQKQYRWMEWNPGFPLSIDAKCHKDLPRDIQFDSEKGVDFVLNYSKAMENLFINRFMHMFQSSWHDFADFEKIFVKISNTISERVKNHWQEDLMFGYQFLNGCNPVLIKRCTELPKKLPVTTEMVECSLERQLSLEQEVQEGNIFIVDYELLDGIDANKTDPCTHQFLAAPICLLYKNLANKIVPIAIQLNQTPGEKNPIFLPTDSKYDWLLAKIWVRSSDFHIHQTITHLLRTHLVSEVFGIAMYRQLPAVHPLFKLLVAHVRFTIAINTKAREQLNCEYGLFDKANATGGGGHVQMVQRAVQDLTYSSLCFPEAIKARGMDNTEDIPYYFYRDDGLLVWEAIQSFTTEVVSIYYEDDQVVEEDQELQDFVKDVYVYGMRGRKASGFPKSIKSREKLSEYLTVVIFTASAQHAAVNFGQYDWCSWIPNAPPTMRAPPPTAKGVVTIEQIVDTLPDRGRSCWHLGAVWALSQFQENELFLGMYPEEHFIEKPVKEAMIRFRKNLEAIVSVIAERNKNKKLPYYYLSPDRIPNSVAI
The assay can be described thus: 5-LIPOX: inhibition of Ca++ ionophore (A23187)-induced release of 5-lipoxygenase products from [14C]-arachidonic acid pre-labelled rat peritoneal neutrophils. Type of assay: cell-based. The following applies: A23187-induced release of leukotriene D4 and 5-HETE, determined graphically from dose-response curves, read-out: 5-LIPOX: concentration of test compound causing 50% inhibition of control response. From the text: A. 5-LIPOX Inhibition of the Ca^++ ionophore (A23187)-induced release of 5-lipoxygenase products ([…] and 5-HETE) from [^14 C]-arachidonic acid pre-labelled rat peritoneal neutrophils. Assayed by a modification of the method reported by Ahnfelt-Ronne et al [Biochemical Pharmacology, Vol. 31, No. 16, pp. 2619-2624 (1982)]. The data presented are micromolar concentrations of test compound causing 50% inhibition of control response determined graphically from dose-response curves.

A further assay concerns the target T2, LTD4 receptor (Cavia porcellus, UniProt Q2NNR5).
T2 construct: a membrane preparation of guinea-pig lung tissue; from tissue; host or cells: guinea-pig lung membranes
T2 sequence (Q2NNR5 1-340): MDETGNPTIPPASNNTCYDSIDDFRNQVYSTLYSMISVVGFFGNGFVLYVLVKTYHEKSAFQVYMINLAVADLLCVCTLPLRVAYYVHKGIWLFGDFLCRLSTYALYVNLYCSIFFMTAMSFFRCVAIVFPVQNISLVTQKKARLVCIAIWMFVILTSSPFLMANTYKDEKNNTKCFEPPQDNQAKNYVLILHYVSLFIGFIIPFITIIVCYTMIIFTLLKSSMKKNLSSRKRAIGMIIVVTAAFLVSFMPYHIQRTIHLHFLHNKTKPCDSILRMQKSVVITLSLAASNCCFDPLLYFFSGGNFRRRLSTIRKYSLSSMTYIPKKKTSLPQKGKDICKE
The assay can be described thus: LTD4 RECEPTOR: inhibition of specific binding of [3H]-LTD4 to a membrane preparation of guinea-pig lung tissue. Conditions: [3H]-LTD4, guinea-pig lung membrane preparation; determined graphically from dose-response curves; read-out: LTD4 receptor: concentration of test compound causing 50% inhibition of specific binding. From the text: B. LTD4 RECEPTOR Inhibition of the specific binding of [^3 H]-LTD4 to a membrane preparation of guinea-pig lung tissue assayed by a modification of a method reported by Bruns et al [Life Sciences, Vol. 33, pp. 645-653 (1983)]. The data presented are micromolar concentrations of test compound causing 50% inhibition of specific binding determined graphically from dose-response curves.

In the case of `O=[N+]([O-])c1cc(SC2CCCc3cccnc32)ccc1O` (stereo not shown) [Example 21, 8-(4-hydroxy-3-nitrophenylthio)-5,6,7,8-tetrahydroquinoline], at 5-lipoxygenase, the IC50 is 33 µM.
On to `CCCCOc1ccc(SC2CCCc3cccnc32)cc1` (stereo not shown) [Example 17, 8-(4-n-Butoxyphenylthio)-5,6,7,8-tetrahydroquinoline hydrochloride], for which the IC50 on 5-lipoxygenase turned out to be 3.7 µM.
Take `O=C(O)c1ccc(SC2CCCc3cccnc32)cc1` (stereo not shown) [Example 16, 4-(5,6,7,8-tetrahydroquinoline-8-ylthio)-benzoic acid]: the IC50 at 5-lipoxygenase is > 100 µM.
With `CC(=O)Oc1ccc(SC2CCCc3cccnc32)cc1` (stereo not shown) [Example 19, 8-(4-acetoxyphenylthio)-5,6,7,8-tetrahydroquinoline hydrochloride], the IC50 at 5-lipoxygenase was found to be 45 µM.
For the compound `COc1ccc(SC2CCCc3cccnc32)cc1` (stereo not shown) [Example 14, 8-(4-methoxyphenylthio)-5,6,7,8-tetrahydroquinoline hydrochloride], the IC50 on 5-lipoxygenase was found to be 13.2 µM; on LTD4 receptor, 16.6 µM.
In the same order, the values of `Nc1ccc(SC2CCCc3cccnc32)cc1` (stereo not shown) [Example 7, 8-(4-aminophenylthio)-5,6,7,8-tetrahydroquinoline] are 25 µM and > 100 µM.
With `Oc1ccc(SC2CCCc3cccnc32)cc1` (stereo not shown) [Example 8, 8-(4-hydroxyphenylthio)-5,6,7,8-tetrahydroquinoline], the IC50 at 5-lipoxygenase is 14.1 µM.
For the compound `CCCCCC(O)c1cccc(SC2CCCc3cccnc32)c1` (stereo not shown) [Example 11, 8[3-(1-hydroxyhexyl)-phenylthio]-5,6,7,8-tetrahydroquinoline], on 5-lipoxygenase, the IC50 came to 5.6 µM.
Turning to `Clc1ccc(SC2CCCc3cccnc32)cc1` (stereo not shown) [Example 1, 8-(4-chlorophenylthio)-5,6,7,8-tetrahydroquinoline hydrochloride], the figures for the IC50 on 5-lipoxygenase and at LTD4 receptor were 4.2 µM and 22.4 µM, respectively.
For the compound `CCOc1ccc(SC2CCCc3cccnc32)cc1` (stereo not shown) [Example 18, 8-(4-ethoxyphenylthio)-5,6,7,8-tetrahydroquinoline hydrochloride], at 5-lipoxygenase, the IC50 was determined as 11.2 µM.
The same measure, in the same setting: with `COC(=O)c1ccc(SC2CCCc3cccnc32)cc1` (stereo not shown) [Example 20, Methyl 4-(5,6,7,8-tetrahydroquinoline-8-ylthio)-benzoate hydrochloride] the figure was 18.6 µM; with `N#Cc1ccc(SC2CCCc3cccnc32)cc1` (stereo not shown) [Example 2, 4-(5,6,7,8-tetrahydroquinoline-8-ylthio)-benzonitrile], 31 µM; with `CCCCc1ccc(SC2CCCc3cccnc32)cc1` (stereo not shown) [Example 10, 8-(4-n-butylphenylthio)-5,6,7,8-tetrahydroquinoline hydrochloride], 1.9 µM.
Turning to `O=[N+]([O-])c1ccc(SC2CCCc3cccnc32)cc1` (stereo not shown) [Example 4, 8-(4-nitrophenylthio)-5,6,7,8-tetrahydroquinoline hydrochloride], the IC50 on 5-lipoxygenase amounted to 12.6 µM; at LTD4 receptor, 26.3 µM.
Regarding `NS(=O)(=O)c1ccc(SC2CCCc3cccnc32)cc1` (stereo not shown) [Example 12, 4-(5,6,7,8-tetrahydroquinoline-8-ylthio)-benzenesulfonamide], the IC50 on 5-lipoxygenase was determined as 26 µM.
The same measure, in the same setting: then `c1cnc2c(c1)CCCC2Sc1ccc2ccccc2c1` (stereo not shown) [Example 9, 8-(2-naphthylthio)-5,6,7,8-tetrahydroquinoline hydrochloride], with 2.3 µM.
With `Cc1ccc(SC2CCCc3cccnc32)cc1` (stereo not shown) [Example 5, 8-(4-methylphenylthio)-5,6,7,8-tetrahydroquinoline hydrochloride], the results for the IC50 at 5-lipoxygenase and on LTD4 receptor were 3 µM and 23.4 µM, respectively.
Take `CCc1ccc(SC2CCCc3cccnc32)cc1` (stereo not shown) [Example 15, 8-(4-ethylphenylthio)-5,6,7,8-tetrahydroquinoline hydrochloride]: the IC50 at 5-lipoxygenase stood at 4 µM.
Turning to `c1cnc2c(c1)CCCC2Sc1cccc2ccccc12` (stereo not shown) [Example 6, 8-(1-naphthylthio)-5,6,7,8-tetrahydroquinoline], the IC50 is 1.7 µM at 5-lipoxygenase and 52.5 µM on LTD4 receptor.
